This test relates to OVCAR-5 complex spheroid (HUVEC/MSC), viability % T/C. Briefly: Anticancer human tumor OVCAR-5 cell line growth inhibition [Asc].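 As to all read-outs here: spheroids exposed to agents for 7 days before readout.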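 As to viability, T/C: 100% = DMSO vehicle-treated wells.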 As to conditions: for viability, T/C: stronger effect = lower value. A digest of the protocol:
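Spheroid model: tumor line + HUVEC + hMSC. Single agents and combinations; top conc. at/near clinical Cmax (10 microM if undetermined), half-log dilutions. DMSO stocks at 800-fold test concentration.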

Molecules are shown by their SMILES. “And” between values parts separate entries of the source, which are not always exact repeats. Equal values may be shown once. Where only a bound is given, the exact number is not on record here.

On to `CNC(C)C(=O)NC1CN(S(=O)(=O)c2cccc(S(=O)(=O)N3CCC4CCC(C(=O)NC(c5ccccc5)c5ccccc5)N4C(=O)C(NC(=O)C(C)NC)C3)c2)CCC2CCC(C(=O)NC(c3ccccc3)c3ccccc3)N2C1=O` (stereo unspecified), for which the viability, T/C (as a rule, the result in the treated group divided by that in the control group, in per cent) runs as follows: (compound 0.00316 µM) 97.5% and 104%; (compound 0.01 µM) 95.1% [middle of 15 runs]; (compound 0.0316 µM) 83.1% [middle of 15 runs]; (compound 0.1 µM) 80.8% [middle of 15 runs]; (compound 0.316 µM) 81.5% [middle of 15 runs]; (compound 1 µM) 80.3% [middle of 15 runs]. Besides, the 50% inhibitory concentration (IC50) (in general, the concentration that inhibits the measured activity by half) reads like this: (compound alone, run of 10/03/2022) > 1 µM; (curve of compound) > 1 µM.

As to `Cc1c(S(C)(=O)=O)c(-c2cc(F)cc(N3CCN(c4ccc(NS(=O)(=O)c5ccc(NC(CCN6CCC(C(=O)OCCCP(=O)(O)O)CC6)CSc6ccccc6)c(S(=O)(=O)C(F)(F)F)c5)cc4)CC3)c2)c(-c2ccc(Cl)cc2)n1C(C)C` (stereo unspecified), the viability, T/C (compound 0.316 µM) was 92.2% [middle of 14 runs]; the viability, T/C (compound 1 µM) was 90.3% [middle of 14 runs]; the viability, T/C (compound 3.16 µM) was 88.8% [middle of 13 runs]. Further, the IC50 (compound alone, run of 09/27/2022) is > 10 µM.

As for `C=CC(=O)N1CCN(c2nc(=O)n(-c3c(C)ccnc3C(C)C)c3nc(-c4c(O)cccc4F)c(F)cc23)C(C)C1` (stereo unspecified) + CCN1C(C(=O)NC23CCC(C(=O)O)(CC2)CC3)C(c2cccc(Cl)c2F)C2(C(=O)Nc3cc(Cl)ccc32)C12CCCCC2, the IC50 is > 10 µM (curve of first compound, second compound 0.03 µM); > 10 µM (curve of first compound, second compound 0.0949 µM); > 10 µM (curve of first compound, second compound 0.3 µM); > 10 µM (curve of first compound, second compound 0.949 µM); > 10 µM (curve of first compound, second compound 3 µM). Moreover, the viability, T/C runs as follows: (second compound 0.03 µM, first compound 0.0316 µM) 112%; (second compound 0.03 µM, first compound 0.1 µM) 111%; (second compound 0.03 µM, first compound 0.316 µM) 120%; (second compound 0.03 µM, first compound 1 µM) 125%; (second compound 0.03 µM, first compound 3.16 µM) 113%; (second compound 0.03 µM, first compound 10 µM) 104%. Also, the viability, T/C was 110% (second compound 0.0949 µM, first compound 0.0316 µM); 111% (second compound 0.0949 µM, first compound 0.1 µM); 106% (second compound 0.0949 µM, first compound 0.316 µM); 112% (second compound 0.0949 µM, first compound 1 µM); 116% (second compound 0.0949 µM, first compound 3.16 µM); 92.1% (second compound 0.0949 µM, first compound 10 µM). Moreover, the viability, T/C is, setting by setting: (second compound 0.3 µM, first compound 0.0316 µM) 105%; (second compound 0.3 µM, first compound 0.1 µM) 119%; (second compound 0.3 µM, first compound 0.316 µM) 112%; (second compound 0.3 µM, first compound 1 µM) 121%; (second compound 0.3 µM, first compound 3.16 µM) 118%; (second compound 0.3 µM, first compound 10 µM) 116%. Moreover, the viability, T/C was 109% (second compound 0.949 µM, first compound 0.0316 µM); 118% (second compound 0.949 µM, first compound 0.1 µM); 102% (second compound 0.949 µM, first compound 0.316 µM); 103% (second compound 0.949 µM, first compound 1 µM); 109% (second compound 0.949 µM, first compound 3.16 µM); 106% (second compound 0.949 µM, first compound 10 µM). In addition, the viability, T/C by setting is: (second compound 3 µM, first compound 0.0316 µM) 116%; (second compound 3 µM, first compound 0.1 µM) 118%; (second compound 3 µM, first compound 0.316 µM) 122%; (second compound 3 µM, first compound 1 µM) 111%; (second compound 3 µM, first compound 3.16 µM) 111%; (second compound 3 µM, first compound 10 µM) 111%.

As for `CNC(C)C(=O)NC1CN(S(=O)(=O)c2cccc(S(=O)(=O)N3CCC4CCC(C(=O)NC(c5ccccc5)c5ccccc5)N4C(=O)C(NC(=O)C(C)NC)C3)c2)CCC2CCC(C(=O)NC(c3ccccc3)c3ccccc3)N2C1=O` (stereo unspecified) + Cc1c(S(C)(=O)=O)c(-c2cc(F)cc(N3CCN(c4ccc(NS(=O)(=O)c5ccc(NC(CCN6CCC(C(=O)OCCCP(=O)(O)O)CC6)CSc6ccccc6)c(S(=O)(=O)C(F)(F)F)c5)cc4)CC3)c2)c(-c2ccc(Cl)cc2)n1C(C)C, the IC50 is, setting by setting: (curve of first compound, second compound 0.1 µM) > 1 µM; (curve of first compound, second compound 0.316 µM) > 1 µM; (curve of first compound, second compound 1 µM) > 1 µM; (curve of first compound, second compound 3.16 µM) > 1 µM; (curve of first compound, second compound 10 µM) > 1 µM. Moreover, the viability, T/C was 97.7% (second compound 0.1 µM, first compound 0.00316 µM); 91.1% (second compound 0.1 µM, first compound 0.01 µM); 83.2% (second compound 0.1 µM, first compound 0.0316 µM); 79.3% (second compound 0.1 µM, first compound 0.1 µM); 85.2% (second compound 0.1 µM, first compound 0.316 µM); 76.1% (second compound 0.1 µM, first compound 1 µM). Further, the viability, T/C (second compound 0.316 µM, first compound 0.00316 µM) is 96.2%; the viability, T/C (second compound 0.316 µM, first compound 0.01 µM) is 87.7%; the viability, T/C (second compound 0.316 µM, first compound 0.0316 µM) is 78%; the viability, T/C (second compound 0.316 µM, first compound 0.1 µM) was 77.8%; the viability, T/C (second compound 0.316 µM, first compound 0.316 µM) is 74.8%; the viability, T/C (second compound 0.316 µM, first compound 1 µM) is 81%. In addition, the viability, T/C by setting is: (second compound 1 µM, first compound 0.00316 µM) 90.7%; (second compound 1 µM, first compound 0.01 µM) 86.9%; (second compound 1 µM, first compound 0.0316 µM) 78.8%; (second compound 1 µM, first compound 0.1 µM) 75.2%; (second compound 1 µM, first compound 0.316 µM) 67.1%; (second compound 1 µM, first compound 1 µM) 75%. For the same molecule, the viability, T/C is 89.1% (second compound 3.16 µM, first compound 0.00316 µM); 94.3% (second compound 3.16 µM, first compound 0.01 µM); 83% (second compound 3.16 µM, first compound 0.0316 µM); 68.1% (second compound 3.16 µM, first compound 0.1 µM); 71.5% (second compound 3.16 µM, first compound 0.316 µM); 81.6% (second compound 3.16 µM, first compound 1 µM). The viability, T/C is 119% (second compound 10 µM, first compound 0.00316 µM); 130% (second compound 10 µM, first compound 0.01 µM); 121% (second compound 10 µM, first compound 0.0316 µM); 99.8% (second compound 10 µM, first compound 0.1 µM); 108% (second compound 10 µM, first compound 0.316 µM); 96.8% (second compound 10 µM, first compound 1 µM).

`CCN1CCN(Cc2ccc(Nc3ncc(F)c(-c4cc(F)c5nc(C)n(C(C)C)c5c4)n3)nc2)CC1`: the viability, T/C runs as follows: (compound 0.00316 µM) 96.2% and 105% and 97.1%; (compound 0.01 µM) 89% and 87.6% and 79.2%; (compound 0.0316 µM) 70.1% and 70.8% and 77.2%; (compound 0.1 µM) 66.8% and 66.6% and 69.3%; (compound 0.316 µM) 71.2% and 64.5% and 68.4%; (compound 1 µM) 60.4% and 55.5% and 60.6%. Further, the half-maximal inhibitory concentration (IC50) (curve of compound) is > 1 µM.

As for `C#Cc1c(F)ccc2cc(O)cc(-c3ncc4c(N5CC6CCC(C5)N6)nc(OCC56CCCN5CC(F)C6)nc4c3F)c12` (stereo unspecified), the viability, T/C (compound 0.0316 µM) is 114% and 104% and 101%; the viability, T/C (compound 0.1 µM) was 112% and 100% and 106%; the viability, T/C (compound 0.316 µM) is 92.9% and 93.9% and 84.2%; the viability, T/C (compound 1 µM) was 80.5% and 88.2% and 96.8%; the viability, T/C (compound 3.16 µM) is 78.7% and 72.7% and 75%; the viability, T/C (compound 10 µM) was 40.5% and 39.1% and 39.3%. For the same molecule, where the note is “curve of compound”, the IC50 was 7.56 µM and 6.9 µM and 7.16 µM.

For the origin of these results see PubChem BioAssay AID1963436 (Molecular Pharmacology Branch, DTP, NCI, 2024).
